Experimental data from patent US20070015828A1 (Wyeth, priority 2005, published 2007).
Entries after “also recorded” stand apart in the source; their conditions may differ.

Key:
Adrenergic, Beta 1 (hr) = Adrenergic, Beta 1 (hr) (Homo sapiens, UniProt P08588); assay: Receptor binding assay: Adrenergic Beta 1; conditions: Test Compound @ 10 1 M
Muscarinic, M1 (hr) = biological target: T1, Muscarinic, M1 (hr) (Homo sapiens, UniProt P11229); assay: Receptor binding assay: Muscarinic M1; conditions: Test Compound @ 10 1 M
T1 construct: Novascreen (contract assay)

[1] = In vitro metabolism in hepatic microsomes, dog; type: in vitro ADME; conditions: male dogs, read-out: t1/2 in hepatic microsomes
Description: (§1) In vitro metabolism of 1-[2-dimethylamino-1-(4-phenol)ethyl]-cis-1,4-cyclohexandiol was conducted in the hepatic microsomes of Sprague-Dawley rats, male dogs, male monkeys and mixed male and female humans to characterize metabolic stability and identification of metabolites. 1-[2-dimethylamino-1-(4-phenol)ethyl]-cis-1,4-cyclohexandiol was stable (t1/2>60 minutes) in hepatic microsomes indicating Phase I and II metabolism was minimal in all species.

Hygroscopicity = type: physicochemical
Imidazoline, I2 central = assay: Imidazoline binding assay: I2 central; conditions: Test Compound @ 10 1 M
[2] = In vitro metabolism in hepatic microsomes, monkey; type: in vitro ADME; conditions: male monkeys, read-out: t1/2 in hepatic microsomes
Description: as §1

rat hot plate assay = assay: Rat hot plate assay (acute pain); type: in vivo; conditions: up to 30 mg/kg po
[3] = biological target: T2, Norepinephrine transporter (Homo sapiens, UniProt P23975); assay: Norepinephrine transporter (human recombinant) binding assay
T2 construct: Novascreen (contract assay)
T2 sequence (P23975 whole entry): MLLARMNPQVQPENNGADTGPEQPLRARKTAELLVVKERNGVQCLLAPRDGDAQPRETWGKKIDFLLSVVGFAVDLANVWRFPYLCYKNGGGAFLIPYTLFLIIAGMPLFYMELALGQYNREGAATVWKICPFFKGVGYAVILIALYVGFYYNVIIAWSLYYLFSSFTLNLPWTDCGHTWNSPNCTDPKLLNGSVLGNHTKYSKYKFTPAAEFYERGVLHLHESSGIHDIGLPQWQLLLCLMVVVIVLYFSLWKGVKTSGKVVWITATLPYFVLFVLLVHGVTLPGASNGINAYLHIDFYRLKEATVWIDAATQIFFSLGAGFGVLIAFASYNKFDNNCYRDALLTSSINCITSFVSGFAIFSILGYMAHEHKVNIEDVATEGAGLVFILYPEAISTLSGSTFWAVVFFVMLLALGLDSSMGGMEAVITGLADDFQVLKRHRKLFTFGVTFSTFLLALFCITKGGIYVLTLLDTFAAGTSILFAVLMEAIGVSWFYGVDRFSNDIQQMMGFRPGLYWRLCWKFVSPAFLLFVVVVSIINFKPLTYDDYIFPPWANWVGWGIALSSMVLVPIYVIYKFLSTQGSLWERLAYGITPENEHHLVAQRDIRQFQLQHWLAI

[4] = In vitro metabolism in hepatic microsomes, human; type: in vitro ADME; conditions: both sexes, mixed male and female humans, read-out: t1/2 in hepatic microsomes
Description: as §1

Oxidase, MAO-A, Central = biological target: T3, Oxidase, MAO-A, Central (Rattus norvegicus, UniProt P21396); assay: Receptor binding assay: Oxidase MAO-A central (first line); conditions: Test Compound @ 10 1 M
T3 construct: Novascreen (contract assay)
T3 sequence (P21396 whole entry): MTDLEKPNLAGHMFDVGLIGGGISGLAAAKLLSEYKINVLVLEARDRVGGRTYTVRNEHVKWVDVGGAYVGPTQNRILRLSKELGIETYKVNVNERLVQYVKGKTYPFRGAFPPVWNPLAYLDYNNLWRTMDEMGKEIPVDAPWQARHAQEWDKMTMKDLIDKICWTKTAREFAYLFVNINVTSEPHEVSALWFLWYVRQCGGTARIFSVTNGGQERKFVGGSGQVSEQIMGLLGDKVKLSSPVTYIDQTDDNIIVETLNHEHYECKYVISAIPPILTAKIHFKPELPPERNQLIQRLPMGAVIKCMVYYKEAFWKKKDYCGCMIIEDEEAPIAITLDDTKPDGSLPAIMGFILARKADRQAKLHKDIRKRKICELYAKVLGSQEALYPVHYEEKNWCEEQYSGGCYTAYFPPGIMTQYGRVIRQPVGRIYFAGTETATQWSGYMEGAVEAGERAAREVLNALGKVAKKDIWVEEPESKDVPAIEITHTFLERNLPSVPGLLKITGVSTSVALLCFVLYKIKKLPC

pH-Solubility = type: physicochemical; conditions: free base
Adenosine A1 = assay: Receptor binding assay: Adenosine A1; conditions: Test Compound @ 10 1 M
Imidazoline, I1 = assay: Imidazoline binding assay: I1; conditions: Test Compound @ 10 1 M
Muscarinic, MS (hr) = biological target: T4, Muscarinic, MS (hr) (Homo sapiens, UniProt P08912); assay: Receptor binding assay: Muscarinic MS; conditions: Test Compound @ 10 1 M
T4 construct: Novascreen (contract assay)
T4 sequence (P08912 whole entry): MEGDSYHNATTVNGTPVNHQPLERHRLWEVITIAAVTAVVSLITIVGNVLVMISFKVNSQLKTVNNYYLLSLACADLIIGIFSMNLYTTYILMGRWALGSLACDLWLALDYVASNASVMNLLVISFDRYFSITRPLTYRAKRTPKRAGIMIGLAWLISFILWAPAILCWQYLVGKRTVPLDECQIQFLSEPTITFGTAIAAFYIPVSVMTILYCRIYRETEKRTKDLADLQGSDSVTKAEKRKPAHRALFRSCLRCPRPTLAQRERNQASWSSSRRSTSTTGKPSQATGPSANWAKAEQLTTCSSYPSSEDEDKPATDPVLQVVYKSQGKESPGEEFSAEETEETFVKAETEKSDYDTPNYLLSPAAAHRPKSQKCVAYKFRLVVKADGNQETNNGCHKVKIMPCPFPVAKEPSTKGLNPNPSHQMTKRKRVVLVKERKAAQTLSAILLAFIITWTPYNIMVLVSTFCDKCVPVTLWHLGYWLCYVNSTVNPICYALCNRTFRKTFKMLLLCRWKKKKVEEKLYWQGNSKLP

Dopamine, D3 (hr) = Dopamine, D3 (hr) (Homo sapiens, UniProt P35462); assay: Receptor binding assay: Dopamine D3; conditions: Test Compound @ 10 1 M
Melatonin = assay: Receptor binding assay: Melatonin; conditions: Test Compound @ 10 1 M
Serotonin, 5HT1D (h) = biological target: T5, Serotonin, 5HT1D (h) (Homo sapiens, UniProt P28221); assay: Receptor binding assay: Serotonin 5HT1D; conditions: Test Compound @ 10 1 M
T5 construct: Novascreen (contract assay)

[5] = biological target: Adrenergic, Alpha 2C (hr) (Homo sapiens, UniProt P18825); assay: Receptor binding assay: Adrenergic Alpha 2C; conditions: Test Compound @ 10 1 M
Adrenergic, Alpha 1A = biological target: T6, Adrenergic, Alpha 1A (Rattus norvegicus, UniProt P43140); assay: Receptor binding assay: Adrenergic Alpha 1A; conditions: Test Compound @ 10 1 M
T6 construct: Novascreen (assay provider)

rat tail flick assay = assay: Rat tail flick assay (acute pain); type: in vivo; conditions: up to 30 mg/kg po
Adrenergic, Alpha 2B = assay: Receptor binding assay: Adrenergic Alpha 2B; conditions: Test Compound @ 10 1 M
Cannabinoid, CB2 (hr) = Cannabinoid, CB2 (hr) (Homo sapiens, UniProt P34972); assay: Receptor binding assay: Cannabinoid CB2; conditions: Test Compound @ 10 1 M
Sequence of Cannabinoid, CB2 (hr) (P34972 whole entry): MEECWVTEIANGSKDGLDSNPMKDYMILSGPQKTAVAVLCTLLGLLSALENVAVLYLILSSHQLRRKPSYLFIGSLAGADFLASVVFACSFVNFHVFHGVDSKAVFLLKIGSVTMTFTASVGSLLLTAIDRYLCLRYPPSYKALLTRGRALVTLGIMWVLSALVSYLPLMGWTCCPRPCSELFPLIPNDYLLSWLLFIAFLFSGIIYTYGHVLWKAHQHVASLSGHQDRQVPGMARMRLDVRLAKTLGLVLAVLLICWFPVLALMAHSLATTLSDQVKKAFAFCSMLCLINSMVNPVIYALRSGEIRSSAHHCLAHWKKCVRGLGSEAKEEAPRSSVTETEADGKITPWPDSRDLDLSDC

Muscarinic, M4 (hr) = biological target: T7, Muscarinic, M4 (hr) (Homo sapiens, UniProt P08173); assay: Receptor binding assay: Muscarinic M4; conditions: Test Compound @ 10 1 M
T7 construct: Novascreen (contract assay)
T7 sequence (P08173 whole entry): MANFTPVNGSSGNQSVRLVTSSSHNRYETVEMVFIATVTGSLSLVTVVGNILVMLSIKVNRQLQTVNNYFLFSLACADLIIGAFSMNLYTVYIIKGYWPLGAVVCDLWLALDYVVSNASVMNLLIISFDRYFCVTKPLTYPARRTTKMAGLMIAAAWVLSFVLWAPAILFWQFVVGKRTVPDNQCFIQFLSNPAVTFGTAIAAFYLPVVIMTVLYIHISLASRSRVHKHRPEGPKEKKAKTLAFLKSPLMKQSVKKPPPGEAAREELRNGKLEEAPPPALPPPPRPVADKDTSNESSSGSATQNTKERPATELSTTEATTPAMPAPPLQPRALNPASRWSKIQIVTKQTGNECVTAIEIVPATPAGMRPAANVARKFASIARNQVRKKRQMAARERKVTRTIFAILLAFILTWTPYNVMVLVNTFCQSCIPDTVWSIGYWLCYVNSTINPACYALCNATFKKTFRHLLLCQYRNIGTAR

Serotonin, 5HT6 (hr) = Serotonin, 5HT6 (hr) (Homo sapiens, UniProt P50406); assay: Receptor binding assay: Serotonin 5HT6; conditions: Test Compound @ 10 1 M
Sequence of Serotonin, 5HT6 (hr) (P50406 whole entry): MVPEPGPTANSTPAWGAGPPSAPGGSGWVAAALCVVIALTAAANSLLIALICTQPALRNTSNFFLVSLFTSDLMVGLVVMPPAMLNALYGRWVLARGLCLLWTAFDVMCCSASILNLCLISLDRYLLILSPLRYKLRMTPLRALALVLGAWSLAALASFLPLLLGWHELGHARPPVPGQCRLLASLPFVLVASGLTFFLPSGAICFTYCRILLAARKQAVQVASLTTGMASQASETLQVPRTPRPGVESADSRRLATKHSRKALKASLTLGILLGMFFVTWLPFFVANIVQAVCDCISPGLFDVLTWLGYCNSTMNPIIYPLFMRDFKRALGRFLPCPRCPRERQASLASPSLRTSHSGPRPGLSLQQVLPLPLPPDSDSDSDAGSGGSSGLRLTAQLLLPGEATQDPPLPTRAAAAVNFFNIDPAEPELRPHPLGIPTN

Serotonin Transporter = biological target: T8, Serotonin Transporter (Homo sapiens, UniProt P31645); assay: Serotonin transporter (human) binding assay
T8 construct: Novascreen (contract assay)
T8 sequence (P31645 whole entry): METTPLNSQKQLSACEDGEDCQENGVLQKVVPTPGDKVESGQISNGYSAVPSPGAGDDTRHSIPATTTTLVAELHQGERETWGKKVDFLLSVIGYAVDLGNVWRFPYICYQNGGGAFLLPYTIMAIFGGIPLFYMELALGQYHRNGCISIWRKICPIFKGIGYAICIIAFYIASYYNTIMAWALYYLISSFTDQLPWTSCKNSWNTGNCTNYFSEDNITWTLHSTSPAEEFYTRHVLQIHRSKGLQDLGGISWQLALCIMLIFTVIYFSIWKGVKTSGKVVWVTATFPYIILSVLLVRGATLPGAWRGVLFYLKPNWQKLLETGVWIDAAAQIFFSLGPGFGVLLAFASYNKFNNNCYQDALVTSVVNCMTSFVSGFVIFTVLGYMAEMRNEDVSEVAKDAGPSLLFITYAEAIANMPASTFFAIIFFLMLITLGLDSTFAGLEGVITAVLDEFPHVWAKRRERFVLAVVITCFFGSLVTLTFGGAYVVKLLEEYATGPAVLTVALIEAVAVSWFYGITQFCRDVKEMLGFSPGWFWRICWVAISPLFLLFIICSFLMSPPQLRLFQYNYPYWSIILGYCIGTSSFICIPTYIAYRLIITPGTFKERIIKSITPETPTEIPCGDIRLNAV

[6] = tested on: mouse PPQ induced writhing model; assay: Visceral pain model: PPQ-induced constrictions (writhing); type: in vivo
Description: 1-[2-dimethylamino-1-(4-phenol)ethyl]-cis-1,4-cyclohexandiol was dissolved in sterile saline and administered orally (p.o.) at dosages of 10 mg/kg, 30 mg/kg and 100 mg/kg. Gabapentin was purchased from Toronto Research Chemicals (Ontario, Canada) and suspended in 2% Tween 80 in 0.5% methylcellulose and administered intraperitoneally (i.p.).
For the visceral pain study male CD-1 mice (20-25 g, Charles River; Kingston/Stoneridge, NY) were housed in groups of 5/cage on bedding and for the neuropathic study male Sprague-Dawley rats (125-150 g, Harlan; Indianapolis, Ind.) were housed 3/cage on bedding. […]
The ability of 1-[2-dimethylamino-1-(4-phenol)ethyl]-cis-1,4-cyclohexandiol to attenuate acute visceral (abdominal) pain was assessed following an i.p. injection of 2 mg/kg PPQ (dissolved in 4% ethanol in distilled water, Sigma-Aldrich, St. Louis, Mo.) [Siegmund, E., et al., Proceedings of the Society for Experimental Biology and Medicine., 95 (1957) […]]. […] During testing, following PPQ administration, mice were individually placed in a Plexiglas cage and the total number of abdominal constrictions was recorded for one-minute periods, starting at 5 and 10 minutes after PPQ injection.
Statistical significance was determined using a one-way ANOVA using a customized SAS-excel application (SAS Institute, Cary, N.C.). […]

Opiate, Delta 2 (hr) = biological target: T9, Opiate, Delta 2 (hr) (Homo sapiens, UniProt P41143); assay: Receptor binding assay: Opiate Delta 2; conditions: Test Compound @ 10 1 M
T9 construct: Novascreen (contract assay)
T9 sequence (P41143 whole entry): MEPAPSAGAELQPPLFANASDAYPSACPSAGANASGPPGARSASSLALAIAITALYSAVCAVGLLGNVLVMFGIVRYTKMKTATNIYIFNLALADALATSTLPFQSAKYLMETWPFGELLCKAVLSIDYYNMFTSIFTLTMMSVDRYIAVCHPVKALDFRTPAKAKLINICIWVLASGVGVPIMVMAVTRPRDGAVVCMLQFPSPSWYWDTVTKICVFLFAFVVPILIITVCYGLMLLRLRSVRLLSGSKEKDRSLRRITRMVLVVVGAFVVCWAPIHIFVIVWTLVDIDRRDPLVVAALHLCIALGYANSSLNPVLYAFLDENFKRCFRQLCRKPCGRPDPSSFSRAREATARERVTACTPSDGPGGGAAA

Dopamine, D1 (hr) = Dopamine, D1 (hr) (Homo sapiens, UniProt P21728); assay: Receptor binding assay: Dopamine D1; conditions: Test Compound @ 10 1 M
Sequence of Dopamine, D1 (hr) (P21728 whole entry): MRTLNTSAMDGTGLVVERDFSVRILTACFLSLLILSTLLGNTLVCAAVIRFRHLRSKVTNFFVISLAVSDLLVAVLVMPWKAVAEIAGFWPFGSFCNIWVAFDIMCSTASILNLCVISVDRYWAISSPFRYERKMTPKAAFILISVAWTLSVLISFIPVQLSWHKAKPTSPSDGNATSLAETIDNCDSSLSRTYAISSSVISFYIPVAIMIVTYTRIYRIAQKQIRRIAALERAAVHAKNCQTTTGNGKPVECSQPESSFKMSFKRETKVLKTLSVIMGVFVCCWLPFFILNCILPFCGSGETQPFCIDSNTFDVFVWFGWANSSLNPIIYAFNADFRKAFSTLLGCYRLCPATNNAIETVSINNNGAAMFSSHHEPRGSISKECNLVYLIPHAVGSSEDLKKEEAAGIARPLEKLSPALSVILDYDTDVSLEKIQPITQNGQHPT

[7] = interpretation of the binding data in words

Sequence of Adrenergic, Beta 1 (hr) (P08588 whole entry): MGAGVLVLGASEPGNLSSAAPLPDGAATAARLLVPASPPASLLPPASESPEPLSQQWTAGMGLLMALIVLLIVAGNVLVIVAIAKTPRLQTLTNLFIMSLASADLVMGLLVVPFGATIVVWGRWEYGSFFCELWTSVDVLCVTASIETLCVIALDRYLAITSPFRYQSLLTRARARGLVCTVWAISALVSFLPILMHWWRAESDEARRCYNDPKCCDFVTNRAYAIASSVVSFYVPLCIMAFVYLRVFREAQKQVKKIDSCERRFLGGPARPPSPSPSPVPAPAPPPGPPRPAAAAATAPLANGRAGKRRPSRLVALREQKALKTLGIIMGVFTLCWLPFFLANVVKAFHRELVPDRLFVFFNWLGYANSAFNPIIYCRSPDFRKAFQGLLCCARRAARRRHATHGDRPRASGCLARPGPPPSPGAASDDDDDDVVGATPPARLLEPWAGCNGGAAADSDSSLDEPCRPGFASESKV

## CN(C)CC(c1ccc(O)cc1)C1(O)CCC(O)CC1 (stereo not drawn) [1-[2-dimethylamino-1-(4-phenol)ethyl]-cis-1,4-cyclohexandiol]
Adrenergic, Beta 1 (hr)
  inhibition at 10 µM: 7.65%
Muscarinic, M1 (hr)
  inhibition at 10 µM: -5.96%
[1]
  half-life: > 1 h
Hygroscopicity
  Hygroscopicity: Non-hygroscopic
Hygroscopicity; at 26.30C/90% RH, weight gain is lost upon reduction in % RH
  Hygroscopicity, weight gain: < 2%
Imidazoline, I2 central
  Receptor Binding % Inhibition: 3.24%
[2]
  half-life: > 1 h
Rat hot plate assay
  effect on acute pain: not found to affect acute pain
[3]; Norepinephrine transporter, Test Compound @ 10 1 M, read-out: Receptor Binding % Inhibition
  inhibition at 10 µM: 49.7%
[3]; [7]
  norepinephrine reuptake inhibition activity: acceptable
[4]
  half-life: > 1 h
Oxidase, MAO-A, Central
  inhibition at 10 µM: -0.11%
pH-Solubility; Final pH 1.4
  pH-Solubility: Final pH 1.4 24.2 mg/ml
pH-Solubility; Final pH 3.99
  pH-Solubility: Final pH 3.99 24.1 mg/ml
pH-Solubility; Final pH 5.79
  pH-Solubility: Final pH 5.79 26.7 mg/ml
pH-Solubility; Final pH 8.4
  pH-Solubility: Final pH 8.4 22.7 mg/ml
Adenosine A1
  Receptor Binding % Inhibition: −8.51%
Imidazoline, I1
  Receptor Binding % Inhibition: 17.43%
Muscarinic, MS (hr)
  inhibition at 10 µM: 5.4%
Dopamine, D3 (hr)
  inhibition at 10 µM: 3.36%
Melatonin
  Receptor Binding % Inhibition: 11.20%
Serotonin, 5HT1D (h)
  inhibition at 10 µM: 7.26%
[5]
  inhibition at 10 µM: 3.06%
Adrenergic, Alpha 1A
  inhibition at 10 µM: -1.96%
Rat tail flick assay
  effect on acute pain: not found to affect acute pain
Adrenergic, Alpha 2B
  Receptor Binding % Inhibition: 8.60%
Cannabinoid, CB2 (hr)
  inhibition at 10 µM: 15.7%
Muscarinic, M4 (hr)
  inhibition at 10 µM: -3.52%
Serotonin, 5HT6 (hr)
  inhibition at 10 µM: 17.1%
Serotonin Transporter; Serotonin Transporter, Test Compound @ 10 1 M, read-out: Receptor Binding % Inhibition
  inhibition at 10 µM: 94.5%
Serotonin Transporter; [7]
  serotonin reuptake inhibition activity: very good
[6]; 100 mg/kg p.o., 60 minutes prior to PPQ, 100 mg/kg
  reversal of visceral pain (reduction in writhing): statistically significant reversal; also recorded: significant reduction
[6]; 10 and 30 mg/kg p.o.
  reduction in writhing: not statistically significant
Opiate, Delta 2 (hr)
  inhibition at 10 µM: 12.2%
Dopamine, D1 (hr)
  inhibition at 10 µM: -5.73%
